Experimental data: patent publication US20060281755A1, “SYNERGISTIC MODULATION OF FLT3 KINASE USING AMINOPYRIMIDINES KINASE MODULATORS” (priority 2005, published 2006)

What was measured:
[1] = test system: MV4-11 AML cells; experiment: 72-hour cell proliferation assay and combination index analysis, MV4-11; format: cell-based, human; details: with single sub-IC50 dose of FLT3 inhibitor Compound A (50 nM)
[2] = test system: Baf3-ITD cells; experiment: 72-hour cell proliferation assay and combination index analysis, Baf3-ITD; format: cell-based, murine; details: with single sub-IC50 dose of FLT3 inhibitor Compound A (50 nM)
Description: Dose responses for the individual compounds alone were determined for each cell line using a standard 72-hour cell proliferation assay (see FIGS. 6.1-6.8). […] Each of these chemically distinct compounds alone has potential for the treatment of disorders related to FLT3, such as FLT3 positive AML. […] The FLT3 inhibitors tested had no effect on THP-1 proliferation. […] (See FIGS. 10.1-10.8 and Tables 1-3, hereafter.)
To statistically evaluate the synergy of a FLT3 inhibitor and an FTI in FLT3 dependent cell lines, dosing combinations were evaluated by the method of Chou and Talalay. See Chou T C, Talalay P. (1984) “Quantitative analysis of dose-effect relationships: the combined effects of multiple drugs or enzyme inhibitors.” Adv Enzyme Regul. 22:27-55. Using this method inhibitors are added simultaneously to cells in a ratio of the IC50 dose of each compound alone. […] Using this method, multiple FTI and FLT3 combinations were evaluated. […]
Combination Index Analysis. To determine growth inhibition synergy of a FTI and FLT3 inhibitor combination based on the method of Chou and Talalay (Chou and Talalay. See Chou T C, Talalay P. (1984) “Quantitative analysis of dose-effect relationships: the combined effects of multiple drugs or enzyme inhibitors.” Adv Enzyme Regul. 22:27-55.), fixed ratio combination dosing with isobolar statistical analysis was performed. […]

[3] = test system: MV4-11 tumor xenografts; experiment: MV4-11 human tumor xenograft regression model in nude mice; format: in vivo; details: 50 mg/kg bid oral
Description: Female athymic nude mice (CD-1, nu/nu, 9-10 weeks old) were obtained from Charles River Laboratories (Wilmington, Mass.) and were maintained according to NIH standards. All mice were group housed (5 mice/cage) under clean-room conditions in sterile micro-isolator cages on a 12-hour light/dark cycle in a room maintained at 21-22° C. and 40-50% humidity. Mice were fed irradiated standard rodent diet and water ad libitum. All animals were housed in a Laboratory Animal Medicine facility that is fully accredited by the American Association for Assessment and Accreditation of Laboratory Animal Care (AAALAC). […]
The time course of the inhibitory effects of FLT3 inhibitor compounds on the growth of MV4-11 tumors is illustrated in FIG. 1. […] Percent inhibition (% 1) of tumor growth was calculated versus tumor growth in the vehicle-treated Control group on the last study day. Statistical significance versus Control was determined by Analysis of Variance (ANOVA) followed by Dunnett's t-test: * p<0.05; ** p<0.01.
(See FIG. 2). […] Percent Inhibition was calculated versus the mean tumor weight in the vehicle-treated control group. Statistical significance versus Control was determined by ANOVA followed by Dunnett's t-test: ** p<0.01. […]

[4] = patients with relapsed and refractory AML; cited from earlier work

## Cn1cncc1C(N)(c1ccc(Cl)cc1)c1ccc2c(c1)c(-c1cccc(Cl)c1)cc(=O)n2C (single isomer, unassigned; (+)) [Tipifarnib, (+)-6-[amino(4-chlorophenyl)(1-methyl-1H-imidazol-5-yl)methyl]-4-(3-chlorophenyl)-1-methyl-2(1H)-quinolinone]
[1]
  increase in potency of Tipifarnib: more than 3 fold
[2]
  increase in potency of Tipifarnib: more than 3 fold
[3]; 9 days
  effect on tumor growth as single agent: ineffective
[3]; 16 days
  effect on tumor growth as single agent: ineffective
[4]
  response rate: ~30%
